What was measured:
Test in all cases: biochemical
Design in all cases: DiscoverX KinomeScan competition binding assay across human kinases; per cent of control at 10 and 100 uM
ALK(L1196M) = ALK(L1196M) (Homo sapiens, UniProt Q9UM73, L1196M); conditions: competition binding, % of control; read-out: Percent Control (100 uM Levosimendan)
How it was run: (§1)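 KinomeScan competition binding was run across a human kinase panel at 10 μM and 100 μM levosimendan. Results are %control = (test − positive control)/(negative control − positive control) × 100.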

EPHB3 = EPHB3 (Homo sapiens, UniProt P54753); conditions: competition binding, % of control; read-out: Percent Control (100 uM Levosimendan)
How it was run: as §1

CSNK1D = CSNK1D (Homo sapiens, UniProt P48730); conditions: competition binding, % of control; read-out: Percent Control (100 uM Levosimendan)
How it was run: as §1

PRP4 = target: T1, PRP4 (Homo sapiens, UniProt Q13523); conditions: competition binding, % of control; read-out: Percent Control (100 uM Levosimendan)
T1 construct: gene PRPF4B
How it was run: as §1

[1] = target: T2, RPS6KA4(Kin.Dom.1-N-terminal) (Homo sapiens, UniProt O75676); conditions: competition binding, % of control; read-out: Percent Control (100 uM Levosimendan)
T2 construct: Kin.Dom.1-N-terminal
How it was run: as §1

PRKCI = PRKCI (Homo sapiens, UniProt P41743); conditions: competition binding, % of control; read-out: Percent Control (100 uM Levosimendan)
How it was run: as §1

IRAK3 = IRAK3 (Homo sapiens, UniProt Q9Y616); conditions: competition binding, % of control; read-out: Percent Control (100 uM Levosimendan)
How it was run: as §1

PIK3CA(E545A) = PIK3CA(E545A) (Homo sapiens, UniProt P42336, E545A); conditions: competition binding, % of control; read-out: Percent Control (100 uM Levosimendan)
How it was run: as §1

MRCKA = target: T3, MRCKA (Homo sapiens, UniProt Q5VT25); conditions: competition binding, % of control; read-out: Percent Control (100 uM Levosimendan)
T3 construct: gene CDC42BPA
How it was run: as §1

MAP3K2 = MAP3K2 (Homo sapiens, UniProt Q9Y2U5); conditions: competition binding, % of control; read-out: Percent Control (100 uM Levosimendan)
How it was run: as §1

PDGFRB = PDGFRB (Homo sapiens, UniProt P09619); conditions: competition binding, % of control
How it was run: as §1

FLT4 = FLT4 (Homo sapiens, UniProt P35916); conditions: competition binding, % of control
How it was run: as §1

[2] = target: T4, JAK1(JH1domain-catalytic) (Homo sapiens, UniProt P23458); conditions: competition binding, % of control; read-out: Percent Control (100 uM Levosimendan)
T4 construct: JH1domain-catalytic
How it was run: as §1

NEK1 = NEK1 (Homo sapiens, UniProt Q96PY6); conditions: competition binding, % of control; read-out: Percent Control (100 uM Levosimendan)
How it was run: as §1

MYLK2 = MYLK2 (Homo sapiens, UniProt Q9H1R3); conditions: competition binding, % of control; read-out: Percent Control (100 uM Levosimendan)
How it was run: as §1

OSR1 = target: T5, OSR1 (Homo sapiens, UniProt O95747); conditions: competition binding, % of control; read-out: Percent Control (100 uM Levosimendan)
T5 construct: gene OXSR1
How it was run: as §1

SIK = target: T6, SIK (Homo sapiens, UniProt P57059); conditions: competition binding, % of control; read-out: Percent Control (100 uM Levosimendan)
T6 construct: gene SIK1
How it was run: as §1

NEK5 = NEK5 (Homo sapiens, UniProt Q6P3R8); conditions: competition binding, % of control; read-out: Percent Control (100 uM Levosimendan)
How it was run: as §1

NEK11 = NEK11 (Homo sapiens, UniProt Q8NG66); conditions: competition binding, % of control; read-out: Percent Control (100 uM Levosimendan)
How it was run: as §1

[3] = read-out: Percent Control (10 uM Levosimendan)
[4] = read-out: Percent Control (100 uM Levosimendan)

Sequence of FLT4 (P35916 whole entry): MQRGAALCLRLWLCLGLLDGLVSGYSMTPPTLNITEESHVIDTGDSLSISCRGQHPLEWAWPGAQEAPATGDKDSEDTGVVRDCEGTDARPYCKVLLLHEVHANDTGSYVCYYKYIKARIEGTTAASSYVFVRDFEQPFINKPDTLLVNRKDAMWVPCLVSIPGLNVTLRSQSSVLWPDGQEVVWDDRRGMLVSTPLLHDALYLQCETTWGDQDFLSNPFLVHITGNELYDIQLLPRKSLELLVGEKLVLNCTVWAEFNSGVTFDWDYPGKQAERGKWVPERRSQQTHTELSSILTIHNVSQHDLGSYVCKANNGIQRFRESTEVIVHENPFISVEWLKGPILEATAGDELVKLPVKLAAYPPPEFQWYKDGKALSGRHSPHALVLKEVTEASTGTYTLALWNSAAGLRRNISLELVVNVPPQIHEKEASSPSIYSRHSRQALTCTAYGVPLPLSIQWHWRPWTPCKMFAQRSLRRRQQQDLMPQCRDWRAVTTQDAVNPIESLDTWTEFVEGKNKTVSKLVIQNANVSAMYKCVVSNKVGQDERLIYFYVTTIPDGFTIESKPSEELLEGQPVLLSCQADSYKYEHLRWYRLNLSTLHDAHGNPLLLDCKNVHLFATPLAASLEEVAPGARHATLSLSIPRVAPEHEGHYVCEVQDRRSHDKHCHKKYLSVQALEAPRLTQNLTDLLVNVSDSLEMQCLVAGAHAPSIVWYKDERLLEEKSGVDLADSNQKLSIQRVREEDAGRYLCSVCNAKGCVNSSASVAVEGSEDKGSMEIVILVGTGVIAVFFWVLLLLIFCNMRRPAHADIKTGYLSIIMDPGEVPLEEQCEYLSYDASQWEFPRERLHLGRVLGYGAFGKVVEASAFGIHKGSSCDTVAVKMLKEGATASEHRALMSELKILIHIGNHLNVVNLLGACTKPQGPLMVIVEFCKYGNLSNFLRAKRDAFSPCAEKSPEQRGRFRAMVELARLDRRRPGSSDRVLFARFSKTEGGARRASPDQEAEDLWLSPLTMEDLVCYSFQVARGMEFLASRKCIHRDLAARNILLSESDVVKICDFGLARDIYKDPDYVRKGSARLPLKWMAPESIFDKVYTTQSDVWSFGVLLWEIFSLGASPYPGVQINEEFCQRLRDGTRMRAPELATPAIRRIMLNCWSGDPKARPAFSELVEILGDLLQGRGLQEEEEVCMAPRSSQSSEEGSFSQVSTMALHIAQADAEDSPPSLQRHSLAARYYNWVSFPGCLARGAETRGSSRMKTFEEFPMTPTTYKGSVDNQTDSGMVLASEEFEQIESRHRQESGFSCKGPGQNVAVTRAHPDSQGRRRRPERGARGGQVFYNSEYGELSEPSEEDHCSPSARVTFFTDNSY
Sequence of PDGFRB (P09619 whole entry): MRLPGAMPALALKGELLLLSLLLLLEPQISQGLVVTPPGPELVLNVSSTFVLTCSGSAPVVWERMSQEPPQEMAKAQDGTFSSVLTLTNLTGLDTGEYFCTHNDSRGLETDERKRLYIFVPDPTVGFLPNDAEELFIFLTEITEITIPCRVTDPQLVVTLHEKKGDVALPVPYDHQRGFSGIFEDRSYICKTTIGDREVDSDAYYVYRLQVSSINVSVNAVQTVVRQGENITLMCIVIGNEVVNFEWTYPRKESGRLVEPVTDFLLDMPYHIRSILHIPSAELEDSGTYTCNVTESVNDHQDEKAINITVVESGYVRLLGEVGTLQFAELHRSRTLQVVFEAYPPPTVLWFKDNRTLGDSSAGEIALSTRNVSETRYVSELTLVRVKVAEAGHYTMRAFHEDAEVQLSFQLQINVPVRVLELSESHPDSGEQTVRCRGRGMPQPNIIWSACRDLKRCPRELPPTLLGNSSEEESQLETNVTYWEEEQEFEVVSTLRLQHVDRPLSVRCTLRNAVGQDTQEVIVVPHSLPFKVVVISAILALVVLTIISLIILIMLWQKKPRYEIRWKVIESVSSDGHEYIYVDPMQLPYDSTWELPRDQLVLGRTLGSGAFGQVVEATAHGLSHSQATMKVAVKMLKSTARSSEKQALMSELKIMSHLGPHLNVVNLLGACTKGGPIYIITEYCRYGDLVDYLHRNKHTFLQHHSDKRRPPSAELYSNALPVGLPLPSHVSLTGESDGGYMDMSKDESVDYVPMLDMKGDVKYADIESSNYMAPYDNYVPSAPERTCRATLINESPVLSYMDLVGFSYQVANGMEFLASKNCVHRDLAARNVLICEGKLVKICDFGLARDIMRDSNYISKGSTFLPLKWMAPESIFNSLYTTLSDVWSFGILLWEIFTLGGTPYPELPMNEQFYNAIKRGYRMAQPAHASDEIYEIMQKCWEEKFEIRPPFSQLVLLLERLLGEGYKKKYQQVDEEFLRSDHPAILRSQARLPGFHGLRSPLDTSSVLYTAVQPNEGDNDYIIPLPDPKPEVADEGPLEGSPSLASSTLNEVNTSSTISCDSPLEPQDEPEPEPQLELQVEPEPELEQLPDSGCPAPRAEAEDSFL
Sequence of NEK1 (Q96PY6 whole entry): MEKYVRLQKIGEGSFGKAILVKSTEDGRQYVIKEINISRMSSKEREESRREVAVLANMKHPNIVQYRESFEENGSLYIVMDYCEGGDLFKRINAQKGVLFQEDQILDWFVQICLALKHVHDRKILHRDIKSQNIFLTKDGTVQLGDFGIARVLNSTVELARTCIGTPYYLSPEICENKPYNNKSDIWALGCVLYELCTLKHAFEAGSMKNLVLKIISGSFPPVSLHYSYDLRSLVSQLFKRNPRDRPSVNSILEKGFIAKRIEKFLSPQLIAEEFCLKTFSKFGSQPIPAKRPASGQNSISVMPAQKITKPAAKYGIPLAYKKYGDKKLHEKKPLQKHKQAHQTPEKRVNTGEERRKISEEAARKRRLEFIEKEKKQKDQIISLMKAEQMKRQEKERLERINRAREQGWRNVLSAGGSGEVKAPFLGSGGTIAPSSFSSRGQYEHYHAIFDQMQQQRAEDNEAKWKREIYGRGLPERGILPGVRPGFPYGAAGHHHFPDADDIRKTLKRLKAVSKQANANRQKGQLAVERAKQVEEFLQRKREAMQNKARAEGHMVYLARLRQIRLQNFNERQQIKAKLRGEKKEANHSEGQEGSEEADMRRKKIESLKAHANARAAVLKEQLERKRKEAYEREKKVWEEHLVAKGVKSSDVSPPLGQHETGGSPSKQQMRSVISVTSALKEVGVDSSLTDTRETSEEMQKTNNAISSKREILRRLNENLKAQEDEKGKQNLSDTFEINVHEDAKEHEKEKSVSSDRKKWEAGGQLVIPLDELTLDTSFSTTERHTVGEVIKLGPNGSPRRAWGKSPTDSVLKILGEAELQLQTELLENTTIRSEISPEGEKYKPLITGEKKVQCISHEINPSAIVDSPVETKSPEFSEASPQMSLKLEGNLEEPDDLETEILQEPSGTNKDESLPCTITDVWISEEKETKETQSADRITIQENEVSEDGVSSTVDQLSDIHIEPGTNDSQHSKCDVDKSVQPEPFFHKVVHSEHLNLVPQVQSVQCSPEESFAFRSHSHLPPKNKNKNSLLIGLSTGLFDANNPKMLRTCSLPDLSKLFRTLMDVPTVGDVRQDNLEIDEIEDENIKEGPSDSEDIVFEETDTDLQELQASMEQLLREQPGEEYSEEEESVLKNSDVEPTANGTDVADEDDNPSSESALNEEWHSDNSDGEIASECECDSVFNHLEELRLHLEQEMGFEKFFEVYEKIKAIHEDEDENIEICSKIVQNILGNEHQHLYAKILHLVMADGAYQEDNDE
Sequence of PIK3CA(E545A) (P42336 whole entry E545A): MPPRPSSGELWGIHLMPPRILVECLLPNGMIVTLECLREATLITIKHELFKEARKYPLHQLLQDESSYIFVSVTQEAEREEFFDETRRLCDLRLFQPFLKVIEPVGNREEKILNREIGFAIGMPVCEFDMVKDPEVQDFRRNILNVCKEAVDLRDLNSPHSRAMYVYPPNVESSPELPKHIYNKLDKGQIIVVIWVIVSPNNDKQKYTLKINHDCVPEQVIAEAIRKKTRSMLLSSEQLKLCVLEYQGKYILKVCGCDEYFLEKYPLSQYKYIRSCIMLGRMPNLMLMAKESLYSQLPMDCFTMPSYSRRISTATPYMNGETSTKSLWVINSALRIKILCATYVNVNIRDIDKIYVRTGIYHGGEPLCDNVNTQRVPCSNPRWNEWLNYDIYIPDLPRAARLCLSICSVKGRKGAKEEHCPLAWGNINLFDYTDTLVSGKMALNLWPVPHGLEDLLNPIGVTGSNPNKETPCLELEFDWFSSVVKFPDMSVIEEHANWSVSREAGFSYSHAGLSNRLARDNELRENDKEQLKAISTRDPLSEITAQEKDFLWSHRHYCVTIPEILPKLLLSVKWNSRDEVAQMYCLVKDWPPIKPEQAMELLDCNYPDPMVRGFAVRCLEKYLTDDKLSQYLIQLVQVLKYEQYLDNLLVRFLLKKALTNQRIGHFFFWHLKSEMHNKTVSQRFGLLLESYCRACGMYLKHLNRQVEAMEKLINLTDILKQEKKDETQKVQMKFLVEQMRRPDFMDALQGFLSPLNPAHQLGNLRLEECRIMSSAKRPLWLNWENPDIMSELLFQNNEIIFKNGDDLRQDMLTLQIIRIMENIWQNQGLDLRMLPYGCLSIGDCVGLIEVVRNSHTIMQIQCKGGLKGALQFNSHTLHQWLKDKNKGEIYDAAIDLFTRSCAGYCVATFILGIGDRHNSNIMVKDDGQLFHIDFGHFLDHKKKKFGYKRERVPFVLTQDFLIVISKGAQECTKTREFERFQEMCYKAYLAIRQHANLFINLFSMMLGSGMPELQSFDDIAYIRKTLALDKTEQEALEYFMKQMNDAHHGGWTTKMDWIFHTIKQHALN

C[C@@H]1CC(=O)NN=C1c1ccc(NN=C(C#N)C#N)cc1 [levosimendan] gave a remaining binding at 100 µM (ALK(L1196M)) of 72%, a remaining binding at 100 µM (EPHB3) of 96% and a remaining binding at 100 µM (CSNK1D) of 84%. For the same molecule, the remaining binding at 100 µM (PRP4) was 100%, the remaining binding at 100 µM [1] was 53% and the remaining binding at 100 µM (PRKCI) was 58%. For the same molecule, the remaining binding at 100 µM (IRAK3) was 100%, the remaining binding at 100 µM (PIK3CA(E545A)) was 68% and the remaining binding at 100 µM (MRCKA) was 90%. The remaining binding at 100 µM (MAP3K2) was 86%, the remaining binding at 10 µM (PDGFRB; [3]) was 58% and the remaining binding at 100 µM (PDGFRB; [4]) was 12%. The remaining binding at 10 µM (FLT4; [3]) was 100%, the remaining binding at 100 µM (FLT4; [4]) was 49% and the remaining binding at 100 µM [2] was 100%. It also gave a remaining binding at 100 µM (NEK1) of 100%, a remaining binding at 100 µM (MYLK2) of 81% and a remaining binding at 100 µM (OSR1) of 100%. For the same molecule, the remaining binding at 100 µM (SIK) was 59%, the remaining binding at 100 µM (NEK5) was 86% and the remaining binding at 100 µM (NEK11) was 100%.

From article PMC6576746, “Rational discovery of dual-indication multi-target PDE/Kinase inhibitor for precision anti-cancer therapy using structural systems pharmacology” (PLoS Computational Biology, 2019)
